Measurements taken from PubChem BioAssay (NCI).
Where “and” joins values, the source holds several entries; their conditions need not be identical. Identical values can stand only once.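 A five-concentration, 48-hour dose response in 96-well plates underlies each endpoint, interpolated linearly between surrounding concentrations. Here, GI50 denotes the concentration required for 50% inhibition of growth. TGI: concentration producing complete growth inhibition.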

Assays:
Assay in all cases: inhibition of tumour cell growth, NCI panel, 48 h
[1] = system: HL-60(TB) leukemia
[2] = system: HCT-15 colon
[3] = system: SK-MEL-28 melanoma
[4] = system: ACHN renal
[5] = system: A498 renal
[6] = system: IGROV1 ovarian
[7] = system: 786-0 renal
[8] = system: SW-620 colon
[9] = system: LOX IMVI melanoma
[10] = system: NCI-H23 lung

Row | SMILES | TGI [1] | TGI [2] | TGI [3] | TGI [4] | TGI [5] | TGI [6] | TGI [7] | TGI [8] | TGI [9] | TGI [10] | GI50 [9] | GI50 [1] | GI50 [2] | GI50 [3] | GI50 [4] | GI50 [6] | GI50 [7] | GI50 [8] | GI50 [10] | GI50 [5]
1 | CCOC(=O)NC/C=C/CO | > 100 µM | > 100 µM | > 100 µM | > 100 µM | > 100 µM | > 100 µM | > 100 µM | > 100 µM |  |  |  |  |  |  |  |  |  |  |  | 
2 | O=C(CO[N+](=O)[O-])OCC(=O)c1ccccc1 | > 100 µM | > 100 µM | > 100 µM | > 100 µM |  | > 100 µM | > 100 µM | > 100 µM | > 100 µM | > 100 µM |  |  |  |  |  |  |  |  |  | 
3 | Clc1ccc(N=CNc2ccc(-c3nc4ccccc4[nH]3)cc2)cc1 | > 100 µM | > 100 µM | 63.6 µM | > 100 µM |  | > 100 µM | > 100 µM | > 100 µM | 24.8 µM |  | 1.37 µM | 0.631 µM | 33.1 µM | 22.8 µM | > 100 µM | > 100 µM | 68.1 µM | > 100 µM |  | 
4 | Cc1cc(C2(c3cc(C)c(O)c4ncccc34)OC(=O)c3ccccc32)c2cccnc2c1O |  |  | > 100 µM | 1.17 µM and 1.45 µM | > 100 µM | 7.94 µM and 21.9 µM | > 100 µM | > 100 µM | > 100 µM |  |  |  |  | > 100 µM |  |  | 0.114 µM | 0.0521 µM | 0.0145 µM | 12.3 µM
5 | Nc1nc(N)c(-c2ccccc2)c(C(=O)Nc2nccs2)n1 | > 100 µM | > 100 µM | > 100 µM | > 100 µM |  | > 100 µM | > 100 µM | > 100 µM | > 100 µM | > 100 µM |  |  |  |  |  |  |  |  |  | 
6 | Cn1c(=O)c(-c2c(Cl)cccc2Cl)cc2cnc(Nc3ccc(N4CCOCC4)cc3)nc21 | 0.216 µM | > 100 µM | > 100 µM |  | 0.14 µM | 1.33 µM | 0.519 µM | > 100 µM | 1.31 µM | 0.31 µM | 0.178 µM | 0.0137 µM | 0.0944 µM | 0.675 µM |  |  | < 0.01 µM | 0.202 µM | < 0.01 µM | < 0.0433 µM
7 | COC(=O)N/N=C(\c1nc2ccc(Cl)cc2[nH]c1=O)C(O)c1ccc([N+](=O)[O-])cc1 (stereo unspecified) | > 100 µM | > 100 µM | > 100 µM |  |  | > 100 µM | > 100 µM | > 100 µM | > 100 µM | > 100 µM |  |  |  |  |  |  |  |  |  | 
8 | CCNC(=O)O/N=C1/C=C2CC[C@@H]3C(CC[C@@]4(C)C3CC[C@@H]4OC(=O)NCC)[C@@]2(C)CC1 (stereo partly specified) |  | 11.2 µM | 14.6 µM | 11.6 µM | > 100 µM | > 100 µM | 10.7 µM | 11.4 µM | 11.9 µM | 10.8 µM |  |  |  |  |  |  |  |  |  | 
9 | O=C1COc2cc3c(cc2N1)SCC(=O)N3 | > 100 µM |  | > 100 µM |  |  | > 100 µM | > 100 µM | > 100 µM |  | > 100 µM |  |  |  |  |  |  |  |  |  | 
10 | COc1cc(COC(=O)NC(Cc2cccs2)C(=O)O)c([N+](=O)[O-])cc1OC (stereo unspecified) | > 100 µM | > 100 µM | > 100 µM | > 100 µM | > 100 µM | > 100 µM | > 100 µM | > 100 µM |  | > 100 µM |  |  |  |  |  |  |  |  |  | 
11 | Nc1ccc2ncc(Nc3ccc(Cl)c(Cl)c3)nc2c1 | 38.3 µM | > 100 µM | 84.1 µM | 86.3 µM |  |  | > 100 µM | > 100 µM | > 100 µM | 47.9 µM |  |  |  |  |  |  |  |  |  | 
